Test system: P12-Ichikawa
Assay: cell viability relative to DMSO control; higher = less cytotoxic
Settings: 48 h
Outline: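 Viability was expressed as a per-plate percentage of DMSO wells, with cell-free wells as background. Leukemia cells (NOMO1 or SEM at 500 cells/well, P12-Ichikawa at 1000 cells/well) were adapted for at least four passages in each medium and seeded in 1536-well plates (5 μl). Library compounds in DMSO were pin-dosed over an 11-point threefold series from 47 μM to 0.79 nM, and CellTiter-Glo One luminescence was read after 48 h at 37°C.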

[1] = HPLM + 10% dialyzed FBS, 0.000781 µM
[2] = HPLM + 10% dialyzed FBS, 0.00234 µM
[3] = HPLM + 10% dialyzed FBS, 0.00702 µM
[4] = HPLM + 10% dialyzed FBS, 0.0211 µM
[5] = HPLM + 10% dialyzed FBS, 0.0632 µM
[6] = HPLM + 10% dialyzed FBS, 0.19 µM
[7] = HPLM + 10% dialyzed FBS, 0.569 µM
[8] = HPLM + 10% dialyzed FBS, 1.71 µM
[9] = HPLM + 10% dialyzed FBS, 5.12 µM
[10] = HPLM + 10% dialyzed FBS, 15.4 µM
[11] = HPLM + 10% dialyzed FBS, 46.1 µM
[12] = RPMI 5 mM glucose + 10% FBS, 0.000781 µM
[13] = RPMI 5 mM glucose + 10% FBS, 0.00234 µM
[14] = RPMI 5 mM glucose + 10% FBS, 0.00702 µM
[15] = RPMI 5 mM glucose + 10% FBS, 0.0211 µM
[16] = RPMI 5 mM glucose + 10% FBS, 0.0632 µM
[17] = RPMI 5 mM glucose + 10% FBS, 0.19 µM
[18] = RPMI 5 mM glucose + 10% FBS, 0.569 µM
[19] = RPMI 5 mM glucose + 10% FBS, 1.71 µM
[20] = RPMI 5 mM glucose + 10% FBS, 5.12 µM
[21] = RPMI 5 mM glucose + 10% FBS, 15.4 µM
[22] = RPMI 5 mM glucose + 10% FBS, 46.1 µM
[23] = RPMI 5 mM glucose + 10% dialyzed FBS, 0.000781 µM
[24] = RPMI 5 mM glucose + 10% dialyzed FBS, 0.00234 µM
[25] = RPMI 5 mM glucose + 10% dialyzed FBS, 0.00702 µM
[26] = RPMI 5 mM glucose + 10% dialyzed FBS, 0.0211 µM
[27] = RPMI 5 mM glucose + 10% dialyzed FBS, 0.0632 µM
[28] = RPMI 5 mM glucose + 10% dialyzed FBS, 0.19 µM
[29] = RPMI 5 mM glucose + 10% dialyzed FBS, 0.569 µM
[30] = RPMI 5 mM glucose + 10% dialyzed FBS, 1.71 µM
[31] = RPMI 5 mM glucose + 10% dialyzed FBS, 5.12 µM
[32] = RPMI 5 mM glucose + 10% dialyzed FBS, 15.4 µM
[33] = RPMI 5 mM glucose + 10% dialyzed FBS, 46.1 µM

Structure (SMILES)	cell viability [1] [%]	cell viability [2] [%]	cell viability [3] [%]	cell viability [4] [%]	cell viability [5] [%]	cell viability [6] [%]	cell viability [7] [%]	cell viability [8] [%]	cell viability [9] [%]	cell viability [10] [%]	cell viability [11] [%]	cell viability [12] [%]	cell viability [13] [%]	cell viability [14] [%]	cell viability [15] [%]	cell viability [16] [%]	cell viability [17] [%]	cell viability [18] [%]	cell viability [19] [%]	cell viability [20] [%]	cell viability [21] [%]	cell viability [22] [%]	cell viability [23] [%]	cell viability [24] [%]	cell viability [25] [%]	cell viability [26] [%]	cell viability [27] [%]	cell viability [28] [%]	cell viability [29] [%]	cell viability [30] [%]	cell viability [31] [%]	cell viability [32] [%]	cell viability [33] [%]
CC(C)C(=O)Oc1ccc(CO)cc1[C@H](CCN(C(C)C)C(C)C)c1ccccc1	92	87.1	89.2	85.3	90.1	99	75.7	69.3	86.2	76.8	81.8	81.1	82.5	85.6	83.4	83.2	83.9	86.1	84.9	81.5	80.7	83.4	78.9	76.3	82.9	80.1	87	84.2	79.7	78.8	77.1	73.1	78.1
COC1=CC=C(C=C1)C/2=C/OC3=C(C(=CC(=C3)O)O)C2=O	113	120	118	77.2	124	120	119	123	117	105	74.5	108	108	113	65.2	120	120	133	121	123	127	123	118	118	119	82	131	133	129	137	133	134	93.7
CSCC[C@@H](NC(=O)[C@@H](Cc1ccccc1)NC(=O)CNC(=O)CNC(=O)[C@@H](N)Cc1ccc(O)cc1)C(=O)O	84.4	96.7	105	11	113	102	112	104	105	120	115	82.2	91.9	101	12.6	107	105	104	111	99.8	101	102	85.1	88.1	94.1	24.3	101	98.7	104	101	102	97.9	109
C[C@]12CC[C@@H]3c4ccc(O)cc4C[C@@H](CCCCCCCCC[S+]([O-])CCCC(F)(F)C(F)(F)F)[C@H]3[C@@H]1CC[C@@H]2O (stereo not given in full)	112	119	115	116	112	117	112	112	116	104	104																						
